Assays:
[1] = test system: A375 melanoma xenotransplanted-tumours; test: Chemo-sensitization of xenotransplanted tumours, intratumoral jet injection; format: in vivo; details: twice 150 μg DNA construct, twice 0.5 mg/kg vindesine where indicated
Experimental: A) In vitro chemo-sensitization assay results. B) Chemo-sensitization of A375 melanoma xenotransplanted tumors.
The intratumoral jet injection was performed using twice 150 μg of the dumbbell-shaped DNA construct and where indicated additionally twice 0.5 mg/kg tumour vindesine.
On the y-axis is the median of the relative tumour volume shown for the indicated days after transfer (x-axis).

[2] = test system: A375 melanoma cells; details: vindesine 12.8 μg per ml
Source text: In further experiments the effect of TNF-α expression on cell vitality and tumour volume was investigated.

CC[C@]1(O)C[C@@H]2CN(CCc3c([nH]c4ccccc34)[C@@](C(=O)OC)(c3cc4c(cc3OC)N(C)[C@H]3[C@@](O)(C(N)=O)[C@H](O)[C@]5(CC)C=CCN6CC[C@]43[C@@H]65)C2)C1 [vindesine]
median of the relative tumour volume [1]: reduces the average tumour volume | relative cell vitality [2]: 0.6
